Source: patent publication US20090036516A1, “COMPOUNDS FOR TREATING METABOLIC SYNDROME” (CTG PHARMA S.R.L., priority 2003, published 2009)

Key:
[1] = tested on: high-fat diet fed insulin resistant mice; experiment: hyperinsulinemic euglycemic clamp in high-fat diet fed insulin resistant mice; type: in vivo; conditions: 50 mg/kg/day by gavage for 7 days; steady state phase of hyperinsulinemic euglycemic clamp; n = 8
Procedure: The effects of administration of 50 mg/kg/day of the compound of Example 2, by gavages to high-fat diet fed insulin resistant mice [Cook et al. Diabetes, 53:2067-72, 2004] for 7 days, in terms of glucose infusion rate (mg/kg per min, during the steady state phase of hyperinsulinemic euglycemic clamp studies) were reported in the following table 1: […]

male Wistar rats = experiment: oxidative stress-induced (BSO) hypertension in rats; type: in vivo; conditions: BSO 30 mmol/L/day in drinking water for seven days; compound 50 mg/kg/day for seven days
Source text: It is widely known that metabolic syndrome is generally accompanied by oxidative stress. Also in the paper of Ogihara (Ogihara T. et al. “Oxidative stress induces insulin resistance by activating the nuclear factor-kB pathway and disrupting normal subcellular distribution of phosphatidylinositol 3-kinase” in Diabetologia 47, 794-805 (2004) such relationship was found. The effect of oxidative stress-induced hypertension in rats has been evaluated in male Wistar rats (10 animals/group). Hypertension was induced by oral administration of buthionine sulphoximine (BSO) (30 mmol/L/day) to the drinking water for seven days.
Compounds of examples 2, 3 and 5 suspended in the vehicle at the dose of 50 mg/kg/day were administered for seven days and some parameters measured in the experiments are reported in table 2.

[2] = tested on: patients with type II diabetes; conditions: single parenteral dose of 1,000 mg; cited from earlier work
diabetic neuropathy = conditions: intravenous 600 mg a day for 3 weeks; cited from earlier work
[3] = tested on: patients with type II diabetes; conditions: oral 600 mg once to 3 times a day; cited from earlier work

SMILES	glucose infusion rate [1]	% Increase systolic blood pressure (male Wistar rats)	% Plasma glutathione decrease (male Wistar rats)	Endothelium function (% contraction induced by acetylcholine) (male Wistar rats)	glucose utilization [2]	symptomatic complaints (diabetic neuropathy)	insulin sensitivity [3]
CC(=O)Oc1ccccc1C(=O)Oc1ccc(-c2cc(=S)ss2)cc1 [Cpd Ex 5, 2-acetoxy-benzoic acid 4-(thioxo-5H-[1,2]dithiol-3-yl)-phenyl ester]	86.4 mg/kg per min	10%	5%	88%			
O=C(O)CCCC[C@@H]1CCSS1 (racemic) [lipoic acid]					distinct improvement	decreased	able to influence the insulin sensitivity
CCOC(=O)c1ccccc1OC(=O)CCCCC1CCSS1 (stereo not shown) [Cpd Ex 6, 2-(5-[1,2]Dithiolan-3-yl-pentanoyloxy)-benzoic acid ethyl ester]		50%	20%	60%			
O=C(Oc1ccc(-c2cc(=S)ss2)cc1)c1ccccc1O [Cpd Ex 8, 2-hydroxybenzoic acid 4-(thioxo-5H-[1,2]dithiol-3-yl)-phenyl ester]		15%	7%	80%			
